# Strand notation (5' to 3'): a small letter for the sugar, then the base; units joined by * are phosphorothioate-linked, units joined directly phosphodiester-linked; [ ] holds rarer units or linkages, { } end groups; capitals alone tell only the bases. e = 2'-O-(2-methoxyethyl) (MOE); [5mC] = 5-methylcytosine; d = 2'-deoxy (DNA)
# Tested on: mouse RANKL mRNA
# Assay: Antisense inhibition of mouse RANKL mRNA levels in C2C12 cells, quantitative real-time PCR (Table 2)
# Format: cell-based
# Set-up: concentration or dose not given beside the values
# Conditions: averages from three experiments
# Method: Cells were seeded into 24-well plates (Falcon-353047 at a density of ˜10,000 cells/cm^2 for use in antisense oligonucleotide transfection.
# Cells are treated and data are obtained in triplicate. […] Cells were harvested 16-24 hours after oligonucleotide treatment.
# PCR reagents were obtained from Invitrogen Corporation, (Carlsbad, Calif.).
# Probes and primers to mouse RANKL were designed to hybridize to a mouse RANKL sequence, using published sequence information (GenBank accession number AF013170.1, incorporated herein as SEQ ID NO:ll). For mouse RANKL the PCR primers were: • forward primer: […] (SEQ ID NO:12) • reverse primer: […] (SEQ ID NO: 13) and • the PCR probe was: FAM-[…]-TAMRA (SEQ ID NO: 14) where FAM is the fluorescent reporter dye and TAMRA is the quencher dye. For mouse GAPDH the PCR primers were: • forward primer: […](SEQ ID NO:15) • reverse primer: […](SEQ ID NO:16) and the • PCR probe was: 5′ JOE-[…]-TAMRA 3′ (SEQ ID NO: 17) where JOE is the fluorescent reporter dye and TAMRA is the quencher dye.
# In accordance with the present invention, a second series of antisense compounds was designed to target different regions of the mouse RANKL RNA, using published sequences (GenBank accession number AF013170.1, incorporated herein as SEQ ID NO: 11). […] All cytidine residues are 5-methylcytidines. […] If present “N.D.” indicates “no data”.
row,Substance,% INHIB (inhibition of mouse RANKL mRNA levels)
1,180805 (antisense eG*eG*e[5mC]*eT*eT*dG*d[5mC]*d[5mC]*dT*d[5mC]*dG*d[5mC]*dT*dG*dG*eG*e[5mC]*e[5mC]*eA*e[5mC]) [compound 180805],62%
2,180808 (antisense eA*eG*e[5mC]*eT*eG*dA*dA*dG*dA*dT*dA*dG*dT*d[5mC]*dT*eG*eT*eA*eG*eG) [compound 180808],74%
3,180810 (antisense eT*e[5mC]*eA*eG*eA*dA*dT*dT*dG*d[5mC]*d[5mC]*d[5mC]*dG*dA*d[5mC]*e[5mC]*eA*eG*eT*eT) [compound 180810],83%
4,180811 (antisense eA*eT*eG*e[5mC]*eT*dA*dA*dT*dT*dT*d[5mC]*dT*dT*d[5mC]*dA*e[5mC]*e[5mC]*eA*eG*e[5mC]) [compound 180811],67%
5,180813 (antisense eA*eT*eG*eT*eT*d[5mC]*d[5mC]*dA*d[5mC]*dG*dA*dA*dA*dT*dG*eA*eG*eT*e[5mC]*eT) [compound 180813],48%
6,180815 (antisense eT*e[5mC]*eA*eT*eA*d[5mC]*dA*d[5mC]*d[5mC]*dG*dT*dG*dG*dG*d[5mC]*e[5mC]*eA*eT*eG*eT) [compound 180815],30%
7,180816 (antisense eA*e[5mC]*e[5mC]*eG*eT*dT*dG*dT*dG*dT*dA*dA*dT*d[5mC]*dA*e[5mC]*e[5mC]*eA*eT*eG) [compound 180816],35%
8,180817 (antisense eG*e[5mC]*eA*eT*e[5mC]*dG*dG*dA*dA*dT*dA*d[5mC]*d[5mC]*dT*d[5mC]*eT*e[5mC]*e[5mC]*e[5mC]*eA) [compound 180817],51%
9,180818 (antisense eT*e[5mC]*eA*eG*eT*dG*dG*d[5mC]*dA*d[5mC]*dA*dT*dG*dT*d[5mC]*e[5mC]*eA*eG*eG*eG) [compound 180818],59%
10,180820 (antisense e[5mC]*eT*eT*eA*eT*dT*dT*dG*d[5mC]*dA*dG*dG*dT*d[5mC]*d[5mC]*e[5mC]*eA*eG*e[5mC]*eG) [compound 180820],44%
11,180821 (antisense e[5mC]*eA*eT*eT*eA*d[5mC]*dA*d[5mC]*d[5mC]*dT*dG*dA*dA*dA*dT*eA*eT*eA*eA*e[5mC]) [compound 180821],15%
12,180822 (antisense eA*eA*eT*e[5mC]*eA*dA*dA*dT*dA*d[5mC]*dT*dA*dT*dA*dG*e[5mC]*eA*e[5mC]*eA*eA) [compound 180822],24%
13,180823 (antisense eT*eA*eA*eA*eT*dA*dT*dT*dT*dT*dG*dA*dA*dT*d[5mC]*eA*eA*eA*eT*eA) [compound 180823],9%
14,180824 (antisense eT*eG*eT*e[5mC]*eA*dA*d[5mC]*dA*dG*dT*dG*dA*dG*dA*d[5mC]*eA*eT*eT*eT*eT) [compound 180824],29%
15,180825 (antisense eG*eT*eA*e[5mC]*eA*dT*dT*dT*dA*dA*dA*dA*d[5mC]*dA*dT*eT*eA*eA*eA*eT) [compound 180825],25%
16,180826 (antisense eT*eA*e[5mC]*eA*eA*dA*dG*dT*dG*d[5mC]*dA*d[5mC]*d[5mC]*dA*dG*eT*eT*eA*eA*eA) [compound 180826],33%
17,180827 (antisense eA*eG*e[5mC]*eT*eA*d[5mC]*dG*dA*dG*dT*dA*d[5mC]*d[5mC]*dT*dT*e[5mC]*eA*eG*eG*eG) [compound 180827],54%
18,180829 (antisense eA*eA*eG*eG*e[5mC]*dA*d[5mC]*d[5mC]*dT*dG*dG*dT*dG*dA*d[5mC]*e[5mC]*eA*eA*e[5mC]*eA) [compound 180829],23%

row,Substance,% INHIB (inhibition of mouse RANKL mRNA levels)
1,180830 (antisense eT*eG*eA*eA*eA*dG*dG*d[5mC]*dA*d[5mC]*d[5mC]*dT*dG*dG*dT*eG*eA*e[5mC]*e[5mC]*eA) [compound 180830],5%
2,180831 (antisense e[5mC]*e[5mC]*eT*eG*eA*d[5mC]*dA*dG*dA*dT*dT*dT*d[5mC]*dA*dG*eT*eA*eG*e[5mC]*e[5mC]) [compound 180831],54%
3,180832 (antisense eG*eG*eA*eA*eA*dA*dA*dA*dA*dA*dG*dA*dA*dA*d[5mC]*e[5mC]*eA*eA*eA*eA) [compound 180832],0%
4,180833 (antisense e[5mC]*eA*eG*eA*eG*dA*d[5mC]*dA*dA*dT*dG*d[5mC]*dT*dT*dT*eT*eA*eT*eT*eG) [compound 180833],22%
5,"aacatggagcgggaggcggc (antisense eA*eA*e[5mC]*eA*eT*dG*dG*dA*dG*d[5mC]*dG*dG*dG*dA*dG*eG*e[5mC]*eG*eG*e[5mC]) [ISIS 180801, 2′-MOE gapmer targeted to mouse RANKL]",at least 40%
6,"acatggagcgggaggcggcg (antisense eA*e[5mC]*eA*eT*eG*dG*dA*dG*d[5mC]*dG*dG*dG*dA*dG*dG*e[5mC]*eG*eG*e[5mC]*eG) [ISIS 180800, 2′-MOE gapmer targeted to mouse RANKL]",at least 40%
7,"agcagactccgccacggccc (antisense eA*eG*e[5mC]*eA*eG*dA*d[5mC]*dT*d[5mC]*d[5mC]*dG*d[5mC]*d[5mC]*dA*d[5mC]*eG*eG*e[5mC]*e[5mC]*e[5mC]) [ISIS 180790, 2′-MOE gapmer targeted to mouse RANKL]",at least 40%
8,"agctacgagtaccttcaggg (antisense eA*eG*e[5mC]*eT*eA*d[5mC]*dG*dA*dG*dT*dA*d[5mC]*d[5mC]*dT*dT*e[5mC]*eA*eG*eG*eG) [ISIS 180827, 2′-MOE gapmer targeted to mouse RANKL]",at least 40%
9,"agctgaagatagtctgtagg (antisense eA*eG*e[5mC]*eT*eG*dA*dA*dG*dA*dT*dA*dG*dT*d[5mC]*dT*eG*eT*eA*eG*eG) [ISIS 180808, 2′-MOE gapmer targeted to mouse RANKL]",at least 40%
10,"atgctaatttcttcaccagc (antisense eA*eT*eG*e[5mC]*eT*dA*dA*dT*dT*dT*d[5mC]*dT*dT*d[5mC]*dA*e[5mC]*e[5mC]*eA*eG*e[5mC]) [ISIS 180811, 2′-MOE gapmer targeted to mouse RANKL]",at least 40%
11,"atgttccacgaaatgagtct (antisense eA*eT*eG*eT*eT*d[5mC]*d[5mC]*dA*d[5mC]*dG*dA*dA*dA*dT*dG*eA*eG*eT*e[5mC]*eT) [ISIS 180813, 2′-MOE gapmer targeted to mouse RANKL]",at least 40%
12,"cagttccttctgcacggccc (antisense e[5mC]*eA*eG*eT*eT*d[5mC]*d[5mC]*dT*dT*d[5mC]*dT*dG*d[5mC]*dA*d[5mC]*eG*eG*e[5mC]*e[5mC]*e[5mC]) [ISIS 180804, 2′-MOE gapmer targeted to mouse RANKL]",at least 40%
13,"ccgccgagcagactccgcca (antisense e[5mC]*e[5mC]*eG*e[5mC]*e[5mC]*dG*dA*dG*d[5mC]*dA*dG*dA*d[5mC]*dT*d[5mC]*e[5mC]*eG*e[5mC]*e[5mC]*eA) [ISIS 180791, 2′-MOE gapmer targeted to mouse RANKL]",at least 40%
14,"cctgacagatttcagtagcc (antisense e[5mC]*e[5mC]*eT*eG*eA*d[5mC]*dA*dG*dA*dT*dT*dT*d[5mC]*dA*dG*eT*eA*eG*e[5mC]*e[5mC]) [ISIS 180831, 2′-MOE gapmer targeted to mouse RANKL]",at least 40%
15,"cgggaggeggcgggtggcgg (antisense e[5mC]*eG*eG*eG*eA*dG*dG*d[5mC]*dG*dG*d[5mC]*dG*dG*dG*dT*eG*eG*e[5mC]*eG*eG) [ISIS 180799, 2′-MOE gapmer targeted to mouse RANKL]",at least 40%
16,"cttatttgcaggtcccagcg (antisense e[5mC]*eT*eT*eA*eT*dT*dT*dG*d[5mC]*dA*dG*dG*dT*d[5mC]*d[5mC]*e[5mC]*eA*eG*e[5mC]*eG) [ISIS 180820, 2′-MOE gapmer targeted to mouse RANKL]",at least 40%
17,"gcatcggaatacctctccca (antisense eG*e[5mC]*eA*eT*e[5mC]*dG*dG*dA*dA*dT*dA*d[5mC]*d[5mC]*dT*d[5mC]*eT*e[5mC]*e[5mC]*e[5mC]*eA) [ISIS 180817, 2′-MOE gapmer targeted to mouse RANKL]",at least 40%
18,"gccctgctccgcgatcgttc (antisense eG*e[5mC]*e[5mC]*e[5mC]*eT*dG*d[5mC]*dT*d[5mC]*d[5mC]*dG*d[5mC]*dG*dA*dT*e[5mC]*eG*eT*eT*e[5mC]) [ISIS 180793, 2′-MOE gapmer targeted to mouse RANKL]",at least 40%

# Reference: patent US20050060764A1, “Mouse model for bone metabolism” (priority 2003, published 2005)
